Test results from patent publication US20090297579A1, “Control of Cells and Cell Multipotentiality in Three Dimensional Matrices” (Massachusetts Institute of Technology, priority 2006, published 2009).
“Also recorded” adds a separate entry of the source.

Tests used:
MEFs [1] = assay: Cell cycle arrest assay with staurosporine: 3D-bilateral structure development / cell mass contraction; type: cell-based, mouse
Experimental: (§1) Cell Cycle Arrest Assays with Staurosporine. Cultures of MEFs were incubated in FM with Staurosporine (20 nM) during 7 days while controls were incubated in FM. At day 6, a pulse of BrdU was applied overnight. MEFs were fixed at day 7 and stained with a mouse monoclonal antibody IGgl anti-BrdU FITC-conjugated (BD PharMingen, 33284×). To assess the dose-response effect of staurosporine on MEFs, these were incubated with different concentrations of staurosporine (0, 2, 20 nM) during 14 days. Visual inspection of the cell mass contraction along these 14 days was performed.
(§2) (A) MEFs were incubated with and without staurosporine (20 nM) during 7 days. Proliferation was studied by means of a BrdU pulse followed by immunostaining against BrdU. (B) MEFs were incubated, during 14 days, with different concentrations of staurosporine (0, 2, 20 nM) to further analyze the effect of proliferation in the contraction phenomenon.

MEFs [2] = assay: BrdU pulse proliferation assay with staurosporine; type: cell-based, mouse; details: staurosporine 20 nM, 7 days, BrdU pulse at day 6
Experimental: as §1, §2

[3] = system: Mouse Embryonic Fibroblasts (MEFs); assay: Gel contraction and bilateral/embryoid-like structure development of MEFs in self-assembling peptide scaffold; type: cell-based; details: for Gel contraction: Table 4, 10 days
Experimental: In other experiments with RAD16-I, MEF cells (<8th passage) were trypsinized from 75 cm2 culture flasks, suspended in sucrose 20% and mixed with the self-assembling peptide RAD16-I (BD, Puramatrix) 0.5% to obtain a final MEF concentration of 2·10^6 cells/ml and 0.25% of RAD16-I. This suspension was seeded into inserts (Millipore) and jellified by addition of FM. After jellification, FM was added on the hydrogel. Incubation was performed at 37° C. with 5% CO2 and medium was changed every 2 days.
The shape presents bilateral symmetry (3D-bilateral) and resembles some aspects of a vertebrate embryo undergoing axis formation. Collagen I cultures presented a different morphology, basically consisting of a small spherical ball produced by equal contraction forces, without any distinctive shape or pattern.
The percentage of self-assembling peptide used for these experiments was half of the amount we described above (0.25% vs. 0.5%). […] Thus, in this example, two different parameters that may affect the development of such embryoid-like structures were studied: self-assembling peptide scaffold stiffness and fetal bovine serum concentration. […] Gel contraction and the presence of embryoid-like structure development were analyzed. nt=condition not tested.

[4] = system: EB-derived cells (mouse embryonic stem cell line R1 Oct4-GFP); assay: Alkaline phosphatase activity of EB-derived cells in 3D culture; type: cell-based; details: EB-dc 3D cultures
Experimental: Fluorescence microscopy was used to monitor GFP expression during EB formation. The EB were harvested and allowed to settle in a tube. The medium was removed and EB were gently treated with trypsin-EDTA 1× (GIBCO). The resultant EB-derived cells were encapsulated into the peptide scaffold (3D cultures) at a final concentration of 2×10^6 cells/mL, as described above, and cultured in control medium (ES medium in the absence of LIF). 2D cultures, in regular culture plates, were also performed as controls. The EB-derived cells were plated into 12-well plate containing control medium (ES medium in the absence of LIF) at a concentration of 760,000 cells/mL (200,000 cells/cm^2). […]
Alkaline phosphatase activity. Alkaline phosphatase enzyme activity (ALP) of 2D and 3D cultures was measured in triplicate cultures before and after the osteogenic differentiation. […] ALP enzyme activity was calculated after measuring the absorbance of the reaction product formed, p-nitrophenol, at 405 nm on a spectrophotometer. […] Total protein levels were determined using a protein detection kit (Bio-Rad) based on the method of Lowry in order to normalize total protein levels. […]

[5] = system: Mouse Embryonic Fibroblasts (MEF); assay: Alkaline phosphatase activity of MEFs in 3D culture; type: cell-based
Experimental: Osteogenic differentiation of Mouse Embryonic Fibroblasts (MEF). Mouse embryonic fibroblasts (MEFs) were purchased from ATCC(SCRC-1008). They were isolated from mouse embryos derived from C57BL/6 mothers at 14 days of gestation (E14). The MEFs were expanded prior to osteogenic induction in MEF culture medium of DMEM (high glucose) containing 10% FBS (fetal bovine serum, Hyclone), 4 mM L-glutamine (GIBCO), and 1% (v/v) penicillin-streptomycin (GIBCO). The differentiation experiments were carried out using cells between passages 3 and 5. The MEFs were encapsulated into the peptide scaffold (3D cultures) at a final concentration of 2×10^6 cells/mL, as described above (3D cultures). 2D cultures were also performed by culturing MEFs into 12-well regular culture plates. Both the 2D and 3D cultures were maintained in MEF culture medium for 2-4 days (FIG. 1B). Next, the MEF medium was changed by osteogenic medium (same as in mESC osteogenic induction section). Also, […] of 1-alpha,25-(OH)2 vitamin D3 (Sigma) was added to the osteogenic medium as previously described for mouse-derived NIH 3T3 fibroblasts. The cultures were maintained for different time periods (FIG. 1B, STAGE 3) in osteogenic medium at 37° C. in humidified air with 5% CO2. The medium was regularly exchanged with fresh osteogenic medium.
Alkaline phosphatase activity. Alkaline phosphatase enzyme activity (ALP) of 2D and 3D cultures was measured in triplicate cultures before and after the osteogenic differentiation. The cultures were rinsed twice with […] (TBS, 50 mM Tris base, 0.15 M NaCl, pH 7.4) and then the cells were incubated with 5 mM p-nitrophenyl phosphate (p-nitrophenyl phosphate disodium salt tablets, Sigma) solution in glycine buffer (50 mM glycine, 1 mM MgCl2, pH 10.5) for 30 min at 37° C. ALP enzyme activity was calculated after measuring the absorbance of the reaction product formed, p-nitrophenol, at 405 nm on a spectrophotometer. Standards were prepared by consecutively diluting 10 mM p-nitrophenol (Sigma) solution in glycine buffer at concentrations ranging from 0.0001 mM to 0.06 mM. Total protein levels were determined using a protein detection kit (Bio-Rad) based on the method of Lowry in order to normalize total protein levels. The final APL activity was expressed in units/mg of protein (one unit will hydrolyze 1 micromoles of p-nitrophenyl phosphate per minute at pH 10.5).

Compound | Effect on 3D-bilateral structure development at diluted concentrations (MEFs [1]; staurosporine 0, 2, 20 nM, 14 days) | Development of the 3D-bilateral structure (MEFs [1]; staurosporine 20 nM, 7 days, MEFs in RAD16-I) | Incorporation of BrdU (MEFs [2]) | Contraction ([3]; Table 3, 0.25% RAD, 2% FBS) | Contraction ([3]; Table 3, 0.25% RAD, 10% FBS) | Contraction ([3]; Table 3, 0.25% RAD, 15% FBS) | Structure formation ([3]; Table 3, 0.25% RAD, 15% FBS) | Contraction ([3]; Table 3, 0.5% RAD, 2% FBS) | Contraction ([3]; Table 3, 0.5% RAD, 10% FBS) | Contraction ([3]; Table 3, 0.5% RAD, 15% FBS) | Gel contraction ([3]; peptide gel 0.25%, FBS 2%) | Gel contraction ([3]; peptide gel 0.25%, FBS 15%) | Gel contraction ([3]; peptide gel 0.5%, FBS 15%) | ALP activity ([4]; control (no osteogenic induction)) [U/mg] | ALP activity ([4]; osteogenic-induced) [U/mg] | ALP activity ([5]; MEF 3D control cultures, after culture) [U/mg] | ALP activity ([5]; MEF 3D control cultures, initial) [U/mg] | ALP activity ([5]; MEF 3D osteogenic cultures, after osteogenic induction) [U/mg] | ALP activity ([5]; MEF 3D osteogenic cultures, initial) [U/mg]
CN[C@@H]1C[C@H]2O[C@@](C)([C@@H]1OC)n1c3ccccc3c3c4c(c5c6ccccc6n2c5c31)C(=O)NC4 [Staurosporine] | dose-response inhibitory effect | clearly abrogated; also recorded: prevented | no incorporation | – | – | – | – | – | – | – | – | – | – | – | – | – | – | – | –
AcN-RADARADARADARADA-CONH2 [Peptide] | – | – | – | No contraction | Low | High contraction; | bilateral structures | No contraction | Very low | Low | Low | High | Low | 190.2 | 87 | 68.1 | 1.8 | 118.3 | 1.5
